Laboratory results as given in patent US20240116922A1, “IMIDAZO[1,2-A]PYRIDINE DERIVATIVES AS IRAK4 INHIBITORS AND THEIR USE IN THE TREATMENT OF DISEASE” (BIOGEN MA INC., priority 2020, published 2024).
In brackets after ≈: the same amount, converted by molar mass.

Key:
[1] = Kinetic solubility assay (CLND), pH 6.8; format: physicochemical; details: potassium phosphate buffer pH 6.8, 2% DMSO, 24 hours at ambient temperature; for solubility kinetic at 24 h: aqueous buffer, kinetic from dmso stock
[2] = biological target: MDR1 (Homo sapiens (Human), UniProt P08183); assay: in vitro; details: MDCK-MDR1
[3] = biological target: IRAK4 (Homo sapiens (Human), UniProt Q9NWZ3); assay: IRAK4 MSD biochemical assay (2-hour 1 mM ATP); details: 0.1 nM IRAK4, 1 mM ATP, 2 hour at room temperature
IRAK4, sequence (Q9NWZ3 whole entry): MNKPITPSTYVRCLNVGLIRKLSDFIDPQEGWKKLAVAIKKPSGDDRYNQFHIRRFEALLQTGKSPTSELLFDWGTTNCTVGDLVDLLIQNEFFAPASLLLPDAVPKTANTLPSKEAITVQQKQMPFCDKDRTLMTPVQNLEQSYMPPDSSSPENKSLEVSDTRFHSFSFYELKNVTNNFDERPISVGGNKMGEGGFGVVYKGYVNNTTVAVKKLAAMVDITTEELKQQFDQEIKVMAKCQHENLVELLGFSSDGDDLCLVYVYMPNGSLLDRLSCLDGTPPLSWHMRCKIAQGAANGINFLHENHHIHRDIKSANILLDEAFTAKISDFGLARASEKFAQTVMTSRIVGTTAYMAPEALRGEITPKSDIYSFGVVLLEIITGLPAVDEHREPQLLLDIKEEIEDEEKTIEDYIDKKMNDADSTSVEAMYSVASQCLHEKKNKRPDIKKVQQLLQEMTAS

MDR1, sequence (P08183 whole entry): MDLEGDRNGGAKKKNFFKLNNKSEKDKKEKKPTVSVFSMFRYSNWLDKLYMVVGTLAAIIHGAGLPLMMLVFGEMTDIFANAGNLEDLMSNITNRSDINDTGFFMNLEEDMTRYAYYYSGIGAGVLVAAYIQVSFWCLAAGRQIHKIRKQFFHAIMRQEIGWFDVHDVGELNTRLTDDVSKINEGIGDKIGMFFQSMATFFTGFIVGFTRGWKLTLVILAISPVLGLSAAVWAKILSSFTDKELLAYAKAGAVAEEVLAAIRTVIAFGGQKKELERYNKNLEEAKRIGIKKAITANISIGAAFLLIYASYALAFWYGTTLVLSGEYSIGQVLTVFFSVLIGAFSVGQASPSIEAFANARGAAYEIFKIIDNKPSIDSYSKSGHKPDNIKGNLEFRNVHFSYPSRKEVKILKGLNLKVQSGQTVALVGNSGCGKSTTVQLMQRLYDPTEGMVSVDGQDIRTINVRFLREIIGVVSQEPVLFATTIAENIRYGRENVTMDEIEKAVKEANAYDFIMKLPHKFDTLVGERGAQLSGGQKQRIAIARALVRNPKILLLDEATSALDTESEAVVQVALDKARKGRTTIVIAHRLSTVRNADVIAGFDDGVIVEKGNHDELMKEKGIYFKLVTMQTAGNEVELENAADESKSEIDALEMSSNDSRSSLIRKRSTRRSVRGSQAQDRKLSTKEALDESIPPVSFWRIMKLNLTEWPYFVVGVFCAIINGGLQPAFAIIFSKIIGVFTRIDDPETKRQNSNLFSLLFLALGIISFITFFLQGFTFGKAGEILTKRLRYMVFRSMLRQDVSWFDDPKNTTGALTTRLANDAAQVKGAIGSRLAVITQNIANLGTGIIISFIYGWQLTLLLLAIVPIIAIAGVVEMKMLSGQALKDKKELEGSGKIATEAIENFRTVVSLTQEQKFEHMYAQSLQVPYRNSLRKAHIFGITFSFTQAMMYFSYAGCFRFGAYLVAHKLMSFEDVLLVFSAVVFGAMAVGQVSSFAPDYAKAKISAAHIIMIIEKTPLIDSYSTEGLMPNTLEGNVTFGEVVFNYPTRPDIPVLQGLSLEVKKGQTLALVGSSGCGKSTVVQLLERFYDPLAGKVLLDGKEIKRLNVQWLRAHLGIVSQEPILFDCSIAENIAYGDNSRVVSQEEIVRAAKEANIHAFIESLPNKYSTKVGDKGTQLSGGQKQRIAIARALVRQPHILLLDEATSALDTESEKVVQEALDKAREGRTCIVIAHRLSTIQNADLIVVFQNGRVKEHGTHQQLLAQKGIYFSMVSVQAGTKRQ

Structure (SMILES)	solubility kinetic at 24 h [1]	also measured
CC[C@H](C)Oc1nc2nc(C34COC(C)(C3)C4)cn2cc1C(=O)Nc1cccn([C@@H]2C[C@@H]2F)c1=O (mixture of isomers) [Example 42, 7-((S)-sec-butoxy)-N-(1-(cis-2-fluorocyclopropyl)-2-oxo-1,2-dihydropyridin-3-yl)-2-(1-methyl-2-oxabicyclo[2.1.1]hexan-4-yl)imidazo[1,2-a]pyrimidine-6-carboxamide]	72.5 µg/mL	efflux ratio at 120 min, 1 μM [2]: 10.8
CC[C@H](C)Oc1cc2nc(C34COC(C)(C3)C4)cn2cc1C(=O)Nc1cccn(C2CC2F)c1=O (mixture of isomers) [Example 96, 7-((S)-sec-butoxy)-N-(1-cis-(2-fluorocyclopropyl)-2-oxo-1,2-dihydropyridin-3-yl)-2-(1-methyl-2-oxabicyclo[2.1.1]hexan-4-yl)imidazo[1,2-a]pyridine-6-carboxamide]	75.7 µg/mL	efflux ratio at 120 min, 1 μM [2]: 10.4
CC(C)Oc1nc2nc(C34COC(C3)C4)cn2cc1C(=O)Nc1cccn([C@@H]2C[C@@H]2F)c1=O (racemic) [Example 87, (rac)-Cis-2-(2-oxabicyclo[2.1.1]hexan-4-yl)-N-(1-(2-fluorocyclopropyl)-2-oxo-1,2-dihydropyridin-3-yl)-7-isopropoxyimidazo[1,2-a]pyrimidine-6-carboxamide]	48.4 µg/mL (≈ 107 µM)	–
COC[C@]12C[C@](c3cn4cc(C(=O)Nc5cccn(C6CC6F)c5=O)c(OC(C)C)nc4n3)(CO1)C2 (mixture of isomers) [Example 90, (rac)-Cis-N-(1-(2-fluorocyclopropyl)-2-oxo-1,2-dihydropyridin-3-yl)-7-isopropoxy-2-(1-(methoxymethyl)-2-oxabicyclo[2.1.1]hexan-4-yl)imidazo[1,2-a]pyrimidine-6-carboxamide]	–	pH 6.8 Solubility (ug/mL) [1]: 74.8 ug/mL
CC(C)Oc1nc2nc(C34COC(C)(C3)C4)cn2cc1C(=O)Nc1cccn([C@@H]2C[C@H]2C)c1=O (racemic) [Example 95, (rac)-trans-7-isopropoxy-2-(1-methyl-2-oxabicyclo[2.1.1]hexan-4-yl)-N-(1-(2-methylcyclopropyl)-2-oxo-1,2-dihydropyridin-3-yl)imidazo[1,2-a]pyrimidine-6-carboxamide]	35.3 µg/mL (≈ 76.2 µM)	–
CC(C)Oc1cc2nc(C34COC(C)(C3)C4)cn2cc1C(=O)Nc1cccn([C@@H]2C[C@@H]2F)c1=O (racemic) [Example 97, (rac)-Cis-N-(1-(2-fluorocyclopropyl)-2-oxo-1,2-dihydropyridin-3-yl)-7-isopropoxy-2-(1-methyl-2-oxabicyclo[2.1.1]hexan-4-yl)imidazo[1,2-a]pyridine-6-carboxamide]	59.5 µg/mL (≈ 128 µM)	–
CC(C)Oc1cc2nc([C@]34CC[C@](C)(C3)OC4)cn2cc1C(=O)Nc1cccc(C(F)F)n1 (single isomer, unassigned) [Comparator 3A, reference compound]	0.8 µg/mL (≈ 1.75 µM)	efflux ratio at 120 min, 1 μM [2]: 0.7
Cc1cnc2c(NC(=O)c3cn4cc([C@@]56CC[C@@](C)(C5)OC6)nc4nc3OC(C)C)cnn2c1 (single isomer, unassigned) [Comparator 4B, reference compound]	2 µg/mL (≈ 4.33 µM)	efflux ratio at 120 min, 1 μM [2]: 2.3
CC(C)Oc1nc2nc([C@]34CC[C@](C)(C3)OC4)cn2cc1C(=O)Nc1cccn(C2CC2)c1=O (single isomer, unassigned) [Example 13]	20.3 µg/mL (≈ 43.8 µM)	–
CC(C)Oc1nc2nc([C@]34CC[C@](CF)(C3)OC4)cn2cc1C(=O)Nc1cccn(C2CC2)c1=O (single isomer, unassigned) [Example 47]	9 µg/mL (≈ 18.7 µM)	–
CC(C)Oc1nc2nc(C34COC(C3)C4)cn2cc1C(=O)Nc1cccn([C@@H]2C[C@@H]2F)c1=O (single isomer, unassigned) [Example 88]	20.7 µg/mL (≈ 45.6 µM)	–
CC(C)Oc1nc2nc(C34COC(C3)C4)cn2cc1C(=O)Nc1cccn([C@H]2C[C@H]2F)c1=O (single isomer, unassigned) [Example 89]	23.9 µg/mL (≈ 52.7 µM)	–
CC(C)Oc1c(C(=O)Nc2cccn([C@@H]3C[C@@H]3F)c2=O)cn2cc(C34COC(C)(C3)C4)nc2c1F (single isomer, unassigned) [Example 92]	–	IC50 [3]: 61 nM
CC(C)Oc1nc2nc([C@]34CC[C@](C)(C3)OC4)cn2cc1C(=O)Nc1cccn([C@@H]2C[C@H]2F)c1=O (single isomer, unassigned) [Example 120]	76.7 µg/mL (≈ 159 µM)	–
CC(C)Oc1nc2nc([C@]34CC[C@](C)(C3)OC4)cn2cc1C(=O)Nc1cccn([C@H]2C[C@@H]2F)c1=O (single isomer, unassigned) [Example 121]	33.9 µg/mL (≈ 70.4 µM)	–
CC(C)Oc1nc2nc([C@@]34CC[C@@](C)(C3)OC4)cn2cc1C(=O)Nc1cccn([C@@H]2C[C@H]2F)c1=O (single isomer, unassigned) [Example 122]	48.8 µg/mL (≈ 101 µM)	–
CC(C)Oc1nc2nc([C@@]34CC[C@@](C)(C3)OC4)cn2cc1C(=O)Nc1cccn([C@H]2C[C@@H]2F)c1=O (single isomer, unassigned) [Example 123]	73 µg/mL (≈ 152 µM)	–

Structure (SMILES)	solubility kinetic at 24 h [1]	also measured
CC(C)Oc1c(C(=O)Nc2cccn([C@@H]3C[C@@H]3F)c2=O)cn2cc([C@@]34CC[C@@](C)(C3)OC4)nc2c1F (single isomer, unassigned) [Example 124]	–	IC50 [3]: 45.5 nM
CC(C)Oc1cc2nc(C34COC(C)(C3)C4)cn2cc1C(=O)Nc1cccn([C@@H]2C[C@H]2F)c1=O (single isomer, unassigned) [Example 154]	37.2 µg/mL (≈ 79.7 µM)	–
CC(C)Oc1nc2nc(C34COC(C)(C3)C4)cn2cc1C(=O)Nc1cccn([C@@H]2C[C@H]2C)c1=O (single isomer, unassigned) [Example 156]	62.8 µg/mL (≈ 135 µM)	–
CC[C@H](C)Oc1cc2nc(C34COC(C)(C3)C4)cn2cc1C(=O)Nc1cccn([C@@H]2C[C@@H]2F)c1=O (single isomer, unassigned) [Example 160]	–	IC50 [3]: 3.1 nM
CC(C)Oc1cc2nc([C@@]34CC[C@@](C)(C3)OC4)cn2cc1C(=O)Nc1cccn([C@@H]2C[C@@H]2F)c1=O (single isomer, unassigned) [Example 168]	–	IC50 [3]: 7.5 nM
CC(C)Oc1cc2nc([C@]34CC[C@](C)(C3)OC4)cn2cc1C(=O)Nc1cccn([C@@H]2C[C@@H]2F)c1=O (single isomer, unassigned) [Example 170]	–	IC50 [3]: 9.4 nM
CC12CC(c3cn4cc(C(=O)Nc5cccn([C@@H]6C[C@@H]6F)c5=O)c(OC5CCC5)cc4n3)(CO1)C2 (single isomer, unassigned) [Example 172]	–	IC50 [3]: 27 nM
CC12CC(c3cn4cc(C(=O)Nc5cccn([C@@H]6C[C@@H]6F)c5=O)c(OC5CC5)cc4n3)(CO1)C2 (single isomer, unassigned) [Example 174]	–	IC50 [3]: 37.5 nM
CC(C)Oc1nc2nc(C34CCC(C)(CC3)OC4)cn2cc1C(=O)Nc1cccc(C(F)F)n1 [Comparator 5A, N-(6-(difluoromethyl)pyridin-2-yl)-7-isopropoxy-2-(1-methyl-2-oxabicyclo[2.2.2]octan-4-yl)imidazo[1,2-a]pyrimidine-6-carboxamide, reference compound]	1.5 µg/mL (≈ 3.18 µM)	efflux ratio at 120 min, 1 μM [2]: 1
Cc1cnc2c(NC(=O)c3cn4cc(C56CCC(C)(CC5)OC6)nc4cc3OC(C)C)cnn2c1 [Comparator 5B, 7-isopropoxy-2-(1-methyl-2-oxabicyclo[2.2.2]octan-4-yl)-N-(6-methylpyrazolo[1,5-a]pyrimidin-3-yl)imidazo[1,2-a]pyridine-6-carboxamide, reference compound]	5.2 µg/mL (≈ 11 µM)	efflux ratio at 120 min, 1 μM [2]: 1.4
CCC12CC(c3cn4cc(C(=O)Nc5cccn(C6CC6)c5=O)c(OC(C)C)nc4n3)(CO1)C2 [Example 31]	24.2 µg/mL (≈ 52.2 µM)	–
CC(C)Oc1nc2nc(C34CCC(CF)(C3)OC4)cn2cc1C(=O)Nc1cccn(C2CC2)c1=O (centres unmarked) [Example 45, N-(1-cyclopropyl-2-oxo-1,2-dihydropyridin-3-yl)-2-(1-(fluoromethyl)-2-oxabicyclo[2.2.1]heptan-4-yl)-7-isopropoxyimidazo[1,2-a]pyrimidine-6-carboxamide]	6.8 µg/mL (≈ 14.1 µM)	–
CC(C)Oc1nc2nc(C34COC(C)(C3)C4)cn2cc1C(=O)Nc1ccnn(C2CC2)c1=O [Example 71, N-(2-cyclopropyl-3-oxo-2,3-dihydropyridazin-4-yl)-7-isopropoxy-2-(1-methyl-2-oxabicyclo[2.1.1]hexan-4-yl)imidazo[1,2-a]pyrimidine-6-carboxamide]	8.9 µg/mL (≈ 19.8 µM)	–
CC(C)Oc1cc2nc(C34COC(C)(C3)C4)cn2cc1C(=O)Nc1ccnn(C2CC2)c1=O [Example 76]	50.9 µg/mL (≈ 113 µM)	efflux ratio at 120 min, 1 μM [2]: 3.6
CC(C)Oc1nc2nc(C34COC(C)(C3)C4)cn2cc1C(=O)Nc1cccn(C2C[C@]2(C)C(F)F)c1=O (stereo partly drawn) [Example 144, N-(1-((1S,2S)-2-(difluoromethyl)-2-methylcyclopropyl)-2-oxo-1,2-dihydropyridin-3-yl)-7-isopropoxy-2-(1-methyl-2-oxabicyclo[2.1.1]hexan-4-yl)imidazo[1,2-a]pyrimidine-6-carboxamide]	34.4 µg/mL (≈ 67 µM)	–
COCC12CC(c3cn4cc(C(=O)Nc5cccn([C@@H]6C[C@@H]6F)c5=O)c(OC(C)C)nc4n3)(CO1)C2 [Example 162, N-(1-((1R,2S)-2-fluorocyclopropyl)-2-oxo-1,2-dihydropyridin-3-yl)-7-isopropoxy-2-(1-(methoxymethyl)-2-oxabicyclo[2.1.1]hexan-4-yl)imidazo[1,2-a]pyrimidine-6-carboxamide]	–	efflux ratio at 120 min, 1 μM [2]: 38.2
COCC12CC(c3cn4cc(C(=O)Nc5cccn([C@H]6C[C@H]6F)c5=O)c(OC(C)C)nc4n3)(CO1)C2 [Example 163, N-(1-((1S,2R)-2-fluorocyclopropyl)-2-oxo-1,2-dihydropyridin-3-yl)-7-isopropoxy-2-(1-(methoxymethyl)-2-oxabicyclo[2.1.1]hexan-4-yl)imidazo[1,2-a]pyrimidine-6-carboxamide]	66 µg/mL (≈ 133 µM)	–
